Source: ChEMBL document CHEMBL4014316, “Amphiphilic Guanidinocalixarenes Inhibit Lipopolysaccharide (LPS)- and Lectin-Stimulated Toll-like Receptor 4 (TLR4) Signaling” (J Med Chem, 2017)
pIC50: −log10 of the molar value.

What was measured:
Format in all cases: cell-based
Toll-like receptor 4 = Toll-like receptor 4 (Homo sapiens, UniProt O00206); assay: Activation of TLR4 signaling (unknown origin) expressed in HEK-Blue cells after 30 mins by secreted embryonic alkaline phosphatase reporter gene assay; conditions: 0.5 h
Sequence of Toll-like receptor 4 (O00206 whole entry): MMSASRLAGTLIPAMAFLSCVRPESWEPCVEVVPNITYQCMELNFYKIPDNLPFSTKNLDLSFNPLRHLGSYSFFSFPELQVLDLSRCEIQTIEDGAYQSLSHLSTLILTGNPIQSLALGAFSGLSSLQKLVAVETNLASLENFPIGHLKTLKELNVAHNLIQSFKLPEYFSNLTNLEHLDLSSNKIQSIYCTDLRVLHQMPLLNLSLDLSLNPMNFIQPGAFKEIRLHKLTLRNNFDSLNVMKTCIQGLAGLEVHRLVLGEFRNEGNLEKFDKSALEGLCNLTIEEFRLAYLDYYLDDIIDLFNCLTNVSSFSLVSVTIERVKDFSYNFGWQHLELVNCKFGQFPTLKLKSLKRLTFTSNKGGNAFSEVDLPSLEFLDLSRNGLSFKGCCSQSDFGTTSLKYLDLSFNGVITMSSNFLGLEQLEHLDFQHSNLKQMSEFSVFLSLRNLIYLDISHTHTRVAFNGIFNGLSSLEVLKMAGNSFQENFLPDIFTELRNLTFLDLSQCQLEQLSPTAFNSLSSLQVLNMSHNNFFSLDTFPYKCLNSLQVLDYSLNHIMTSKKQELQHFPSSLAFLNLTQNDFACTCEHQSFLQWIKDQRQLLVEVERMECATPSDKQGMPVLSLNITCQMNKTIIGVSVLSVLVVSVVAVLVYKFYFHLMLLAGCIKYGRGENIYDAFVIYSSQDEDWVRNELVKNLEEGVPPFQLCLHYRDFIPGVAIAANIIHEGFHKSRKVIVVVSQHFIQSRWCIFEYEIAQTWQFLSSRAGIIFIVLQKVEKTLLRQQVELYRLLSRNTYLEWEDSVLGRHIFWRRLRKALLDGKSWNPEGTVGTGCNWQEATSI

[1] = Cytotoxicity against HEK-Blue cells assessed as reduction in cell viability up to 10 uM measured after overnight incubation by MTT assay; conditions: human
[2] = target: Toll-like receptor 4/MD-2/CD14 (Homo sapiens) (UniProt O00206+Q9Y6Y9+P08571); assay: (§1) Binding affinity to CD14/MD2 (unknown origin) expressed in HEK-Blue cells co-expressing TLR4 assessed as inhibition of LPS-induced TLR4 signaling preincubated for 30 mins followed by LPS stimulation measured after overnight incubation by secreted embryonic alkaline phosphatase reporter gene assay
[3] = target: Toll-like receptor 4/MD-2/CD14 (Homo sapiens, UniProt O00206+P08571+Q9Y6Y9); assay: as §1
Sequence of Toll-like receptor 4/MD-2/CD14 (O00206 whole entry): as above
Sequence of Toll-like receptor 4/MD-2/CD14 (Q9Y6Y9 whole entry): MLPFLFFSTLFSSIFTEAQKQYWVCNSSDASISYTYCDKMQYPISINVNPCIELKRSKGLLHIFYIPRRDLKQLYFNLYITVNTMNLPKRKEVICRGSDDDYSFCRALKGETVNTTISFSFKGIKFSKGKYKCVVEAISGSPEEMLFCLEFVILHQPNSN
Sequence of Toll-like receptor 4/MD-2/CD14 (P08571 whole entry): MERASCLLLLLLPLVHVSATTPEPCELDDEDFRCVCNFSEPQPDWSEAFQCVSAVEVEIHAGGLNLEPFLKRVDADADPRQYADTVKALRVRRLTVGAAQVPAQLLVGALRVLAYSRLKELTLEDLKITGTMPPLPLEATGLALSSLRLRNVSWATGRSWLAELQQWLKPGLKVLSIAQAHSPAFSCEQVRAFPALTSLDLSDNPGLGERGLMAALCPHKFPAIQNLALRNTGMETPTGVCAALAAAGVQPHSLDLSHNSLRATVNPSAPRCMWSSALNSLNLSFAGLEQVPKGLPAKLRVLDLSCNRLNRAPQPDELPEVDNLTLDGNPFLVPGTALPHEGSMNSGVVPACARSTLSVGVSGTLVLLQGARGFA

For CCCOc1c2cc(NC(=N)N)cc1Cc1cc(NC(=N)N)cc(c1OCCC)Cc1cc(NC(=N)N)cc(c1OCCC)Cc1cc(NC(=N)N)cc(c1OCCC)C2.Cl.Cl.Cl.Cl, the Activity (Toll-like receptor 4) was “Not Active” and the Activity [1] was “Non-Toxic”.
In the case of CC(C)(C)c1cc2c(OCCCCNC(=N)N)c(c1)Cc1cc(C(C)(C)C)cc(c1OCCCCNC(=N)N)Cc1cc(C(C)(C)C)cc(c1OCCCCNC(=N)N)Cc1cc(C(C)(C)C)cc(c1OCCCCNC(=N)N)C2.Cl.Cl.Cl.Cl, the inhibition [2] was “Dose-dependent effect”, the pIC50 [3] was 6.70 and the Activity (Toll-like receptor 4) was “Not Active”.
For CC(C)(C)c1cc2c(OCCCNC(=N)N)c(c1)Cc1cc(C(C)(C)C)cc(c1OCCCNC(=N)N)Cc1cc(C(C)(C)C)cc(c1OCCCNC(=N)N)Cc1cc(C(C)(C)C)cc(c1OCCCNC(=N)N)C2.Cl.Cl.Cl.Cl, the inhibition [2] was “Dose-dependent effect”, the pIC50 [3] was 5.00 and the Activity (Toll-like receptor 4) was “Not Active”.
For CCCCCCOc1c2cc(NC(=N)N)cc1Cc1cc(NC(=N)N)cc(c1OCCCCCC)Cc1cc(NC(=N)N)cc(c1OCCCCCC)Cc1cc(NC(=N)N)cc(c1OCCCCCC)C2.Cl.Cl.Cl.Cl, the Activity (Toll-like receptor 4) was “Not Active” and the Activity [1] was “Non-Toxic”.
